Assay results published in ChEMBL document CHEMBL1129740, “Structure-activity relationships of a series of substituted benzamides: potent D2/5-HT2 antagonists and 5-HT1a agonists as neuroleptic agents” (J Med Chem, 1996).

Experiments:
[1] = molecular target: Serotonin 2 (5-HT2) receptor (Rattus norvegicus, UniProt P30994+P08909+P14842); assay: In vitro inhibitory activity against [3H]ketanserin binding to 5-hydroxytryptamine 2 receptor; type: protein assay
Mus musculus [2] = assay: In vivo effective dose required to antagonize the apomorphine induced climbing response in mice administered intraperitoneally.; type: functional; conditions: ip
[3] = molecular target: T1, 5-hydroxytryptamine receptor 1A (Rattus norvegicus, UniProt P19327); assay: In vitro inhibitory activity against [3H]8-OH-DPAT binding to 5-hydroxytryptamine 1A receptor
T1 sequence (P19327 whole entry): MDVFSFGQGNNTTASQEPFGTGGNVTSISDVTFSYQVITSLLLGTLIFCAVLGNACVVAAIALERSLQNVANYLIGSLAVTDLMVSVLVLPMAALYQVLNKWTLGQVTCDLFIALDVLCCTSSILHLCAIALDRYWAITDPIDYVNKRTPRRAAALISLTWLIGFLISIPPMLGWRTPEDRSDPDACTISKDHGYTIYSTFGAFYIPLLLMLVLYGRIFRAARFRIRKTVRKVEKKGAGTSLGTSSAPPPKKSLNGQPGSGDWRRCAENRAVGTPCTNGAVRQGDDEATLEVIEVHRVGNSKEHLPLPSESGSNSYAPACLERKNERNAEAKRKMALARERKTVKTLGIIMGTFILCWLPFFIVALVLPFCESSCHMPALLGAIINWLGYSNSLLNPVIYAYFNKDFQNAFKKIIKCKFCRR

Mus musculus [4] = assay: In vivo effective dose required to antagonize the apomorphine induced climbing response in mice administered perorally; type: functional; conditions: po
Mus musculus [5] = assay: In vivo effective dose to induce catalepsy in mouse administered perorally.; type: functional; conditions: po
Mus musculus [6] = assay: In vivo effective dose to antagonize the apomorphine induced climbing response in stereotypy mouse administered perorally; type: functional; conditions: po
Mus musculus [7] = assay: In vivo effective dose to antagonize the apomorphine induced climbing response in stereotype mouse administered intraperitoneally; type: functional; conditions: ip
Mus musculus [8] = assay: In vivo effective dose to antagonize the apomorphine induced climbing response in mice administered perorally; type: functional; conditions: po
Mus musculus [9] = assay: In vivo effective dose to antagonize the apomorphine induced climbing response in mice administered intraperitoneally.; type: functional; conditions: ip
Mus musculus [10] = assay: In vivo effective dose to induce catalepsy in mouse administered perorally. Value in parentheses is 95% confidence limits.; type: functional; conditions: po
Mus musculus [11] = assay: In vivo effective dose to antagonize the apomorphine induced climbing response in stereotypy mouse administered perorally Value in parentheses is 95% confidence limits.; type: functional; conditions: po
Mus musculus [12] = assay: In vivo effective dose to antagonize the apomorphine induced climbing response in mice administered intraperitoneally. (value in bracket denotes 95% confidence limit); type: functional; conditions: ip
Mus musculus [13] = assay: In vivo effective dose to antagonize the apomorphine induced climbing response in stereotype mouse administered intraperitoneally ( value in bracket indicates 95% confidence limit); type: functional; conditions: ip
Mus musculus [14] = assay: In vivo effective dose to antagonize the apomorphine induced climbing response in mice administered perorally. value in bracket denotes 95% confidence limit); type: functional; conditions: po

Structure (SMILES) | IC50 [1] | IC50 [3] | ED50 (Mus musculus [2]) | ED50 (Mus musculus [4]) | further results
Cl.Nc1cccc(Cl)c1C(=O)NCCCCN1CCN(c2nsc3ccccc23)CC1 | 3.4 nM |  | > 25 mg/kg |  | 
Cl.Nc1ccc([N+](=O)[O-])cc1C(=O)NCCCCN1CCN(c2nsc3ccccc23)CC1 | 3.8 nM | 20 nM | 19.6 mg/kg |  | 
Cl.O=C(NCCCCN1CCN(c2nsc3ccccc23)CC1)c1c(O)ccc(Br)c1O | 16 nM | 120 nM | 6 mg/kg | 28.8 mg/kg | 
COc1ccc(Br)c(O)c1C(=O)NCCCCN1CCN(c2nsc3ccccc23)CC1.Cl | 15 nM | 26 nM | 1.5 mg/kg | 14.3 mg/kg | ED50 (Mus musculus [5]): 123 mg/kg; ED50 (Mus musculus [6]): 87.5 mg/kg; ED50 (Mus musculus [7]): 15.4 mg/kg
COc1c(Br)ccc(O)c1C(=O)NCCCCN1CCN(c2nsc3ccccc23)CC1.Cl | 14 nM |  | 4.7 mg/kg | > 25 mg/kg | 
CCc1cc(Cl)c(O)c(C(=O)NCCCCN2CCN(c3nsc4ccccc34)CC2)c1OC.Cl | 6.3 nM | 23 nM | 25.5 mg/kg |  | 
Cl.Nc1ccc(F)cc1C(=O)NCCCCN1CCN(c2nsc3ccccc23)CC1 | 2.3 nM |  | 2.2 mg/kg | 31.8 mg/kg | 
CC(C)(C)c1ccc(C(=O)NCCCCN2CCN(c3nsc4ccccc34)CC2)cc1.Cl | 68 nM | 520 nM |  | > 25 mg/kg | 
CCc1cc(Cl)c(OC)c(C(=O)NCCCCN2CCN(c3nsc4ccccc34)CC2)c1O.Cl | 6.8 nM | 69 nM | > 25 mg/kg |  | 
CCc1cc(Cl)c(OC)c(C(=O)NCCCCN2CCN(c3nsc4ccccc34)CC2)c1OC.Cl | 30 nM | 180 nM | 26 mg/kg |  | 
Cc1cccc(C(=O)NCCCCN2CCN(c3nsc4ccccc34)CC2)c1N.Cl | 5.8 nM |  | 5.4 mg/kg | 37.6 mg/kg | 
Cl.O=C(NCCCCN1CCN(c2nsc3ccccc23)CC1)c1ccc(/N=N/c2ccccc2)cc1 | 26 nM | 540 nM | > 25 mg/kg |  | 
CC(=O)Nc1ccc(C(=O)NCCCCN2CCN(c3nsc4ccccc34)CC2)cc1.Cl | 51 nM |  | > 25 mg/kg | > 25 mg/kg | 
Cl.O=C(NCCCCN1CCN(c2nsc3ccccc23)CC1)c1ccc(Cl)cc1 | 5.6 nM | 15 nM | 9.4 mg/kg | > 25 mg/kg | 
CCOC(=O)Nc1ccccc1C(=O)NCCCCN1CCN(c2nsc3ccccc23)CC1.Cl | 1.4 nM |  | 1.8 mg/kg | 32.8 mg/kg | 
Cl.Nc1ccc(C(=O)NCCCCN2CCN(c3nsc4ccccc34)CC2)cc1 | 150 nM | 23 nM | > 25 mg/kg |  | 
COc1ccc(Br)c(OC)c1C(=O)NCCCCN1CCN(c2nsc3ccccc23)CC1.Cl | 12 nM | 74 nM | > 25 mg/kg |  | 
Cl.O=C(NCCCCN1CCN(c2nsc3ccccc23)CC1)c1cc(Cl)cc(Cl)c1 | 1.7 nM | 49 nM | > 25 mg/kg |  | 
CC(C)(C)OC(=O)Nc1cccc(C(=O)NCCCCN2CCN(c3nsc4ccccc34)CC2)c1.Cl | 1.3 nM | 12 nM | > 25 mg/kg |  | 
Cc1cccc(N)c1C(=O)NCCCCN1CCN(c2nsc3ccccc23)CC1.Cl | 8.9 nM | 64 nM | > 25 mg/kg |  | 

The remaining compounds from weak to strong by IC50 [3], led by results:

IC50 [1] | IC50 [3] | Structure (SMILES) | ED50 (Mus musculus [2]) | ED50 (Mus musculus [4]) | further results
3.9 nM | 12 nM | Cl.O=C(NCCCCN1CCN(c2nsc3ccccc23)CC1)c1ccccc1O | 1 mg/kg |  | ED50 (Mus musculus [8]): 21.5 mg/kg
2.3 nM | 12 nM | Cl.Nc1cc(C(F)(F)F)ccc1C(=O)NCCCCN1CCN(c2nsc3ccccc23)CC1 | 6.9 mg/kg | > 50 mg/kg | 
1.4 nM | 10 nM | COc1ccc(N)c(C(=O)NCCCCN2CCN(c3nsc4ccccc34)CC2)c1.Cl | 2.1 mg/kg | > 50 mg/kg | 
12 nM | 10 nM | CNc1ccccc1C(=O)NCCCCN1CCN(c2nsc3ccccc23)CC1.Cl | 5.8 mg/kg | 15.6 mg/kg | ED50 (Mus musculus [5]): 80.6 mg/kg; ED50 (Mus musculus [6]): 65 mg/kg; ED50 (Mus musculus [7]): 13.5 mg/kg
1.6 nM | 9.4 nM | Cl.Nc1ccc(Cl)cc1C(=O)NCCCCN1CCN(c2nsc3ccccc23)CC1 | < 6 mg/kg | 25 mg/kg | 
1.5 nM | 9.1 nM | Cl.O=C(NCCCCN1CCN(c2nsc3ccccc23)CC1)c1ccc(C(F)(F)F)cc1 | 12.5 mg/kg | > 25 mg/kg | 
2.3 nM | 9 nM | COc1ccc(C(=O)NCCCCN2CCN(c3nsc4ccccc34)CC2)cc1.Cl | 2.4 mg/kg | > 25 mg/kg | 
1.6 nM | 8.6 nM | CC(C)[C@@H](Nc1ccccc1C(=O)NCCCCN1CCN(c2nsc3ccccc23)CC1)C(=O)O.Cl | > 25 mg/kg |  | 
2.6 nM | 6.6 nM | Cl.Nc1cccc(C(=O)NCCCCN2CCN(c3nsc4ccccc34)CC2)c1 |  |  | 
3.7 nM | 6.4 nM | Cl.O=C(NCCCCN1CCN(c2nsc3ccccc23)CC1)c1ccccc1[N+](=O)[O-] | 25 mg/kg |  | 
2.7 nM | 5.4 nM | CC(C)[C@H](Nc1ccccc1C(=O)NCCCCN1CCN(c2nsc3ccccc23)CC1)C(=O)O.Cl |  | 17.9 mg/kg | ED50 (Mus musculus [5]): 44.5 mg/kg; ED50 (Mus musculus [6]): 59.9 mg/kg; ED50 (Mus musculus [7]): 26.9 mg/kg
2.1 nM | 5.2 nM | Cl.O=C(NCCCCN1CCN(c2nsc3ccccc23)CC1)c1ccccc1 | 1.1 mg/kg | 21.5 mg/kg | 
2 nM | 5.2 nM | CC(=O)Nc1ccccc1C(=O)NCCCCN1CCN(c2nsc3ccccc23)CC1.Cl | 4.1 mg/kg | 22.3 mg/kg | 
0.59 nM | 4.2 nM | Cl.Nc1cc(F)ccc1C(=O)NCCCCN1CCN(c2nsc3ccccc23)CC1 | 2.5 mg/kg | 27.1 mg/kg | 
1.6 nM | 4.2 nM | Cl.Nc1cccc(F)c1C(=O)NCCCCN1CCN(c2nsc3ccccc23)CC1 | 7.8 mg/kg | 20.8 mg/kg | 
1.6 nM | 4.1 nM | COc1cccc(C(=O)NCCCCN2CCN(c3nsc4ccccc34)CC2)c1N.Cl | 2.2 mg/kg | 20.3 mg/kg | 
3.3 nM | 3.8 nM | Cl.Nc1ccccc1C(=O)NCCCCN1CCN(c2nsc3ccccc23)CC1 |  |  | ED50 (Mus musculus [10]): 192 mg/kg; ED50 (Mus musculus [11]): 91.1 mg/kg; ED50 (Mus musculus [12]): 1.5 mg/kg; ED50 (Mus musculus [13]): 10.2 mg/kg; ED50 (Mus musculus [14]): 10.1 mg/kg
2.4 nM | 3.8 nM | Cl.NNc1ccccc1C(=O)NCCCCN1CCN(c2nsc3ccccc23)CC1 | 10.8 mg/kg | 40.4 mg/kg | 
1.8 nM | 3.7 nM | Cl.[N-]=[N+]=Nc1ccccc1C(=O)NCCCCN1CCN(c2nsc3ccccc23)CC1 |  |  | ED50 (Mus musculus [9]): 25 mg/kg
0.5 nM | 1.5 nM | Cl.Nc1c(F)cccc1C(=O)NCCCCN1CCN(c2nsc3ccccc23)CC1 | 0.9 mg/kg | 14.3 mg/kg | ED50 (Mus musculus [5]): 55.5 mg/kg; ED50 (Mus musculus [6]): 46.7 mg/kg; ED50 (Mus musculus [7]): 8.9 mg/kg
3.9 nM | 1.4 nM | CN(CCCCN1CCN(c2nsc3ccccc23)CC1)C(=O)c1ccccc1.Cl | 10 mg/kg | 22.4 mg/kg | 
2.3 nM | 1.2 nM | CN(CCCCN1CCN(c2nsc3ccccc23)CC1)C(=O)c1ccccc1N.Cl | > 12 mg/kg |  | 
0.23 nM | 0.7 nM | CC(C)(C)OC(=O)Nc1ccc(C(=O)NCCCCN2CCN(c3nsc4ccccc34)CC2)cc1.Cl | > 25 mg/kg |  | 
